Source: patent publication US5294611A, “Angiotensin II receptor blocking 2,3,6 substituted quinazolinones” (American Cyanamid Company, priority 1993, dated 1994)
Where two headings read alike, the source gives them in different places.

Test system: Angiotensin II (AII) vasopressor response
Assay: AII Challenge: antagonism of angiotensin II vasopressor response in conscious spontaneously hypertensive rats
Type: in vivo, rat (male okamoto-Aoki SHR)
Settings: for inhibition in vivo at 1 mg/kg / inhibition in vivo at 3 mg/kg / inhibition in vivo at 5 mg/kg: Rattus norvegicus; for inhibition in vivo at 1 mg/kg / inhibition in vivo at 3 mg/kg: iv; for inhibition in vivo at 1 mg/kg / inhibition in vivo at 3 mg/kg / inhibition in vivo at 5 mg/kg / Average Change: SHR n=2; for inhibition in vivo at 3 mg/kg / inhibition in vivo at 5 mg/kg: read-out: Inhibition; for inhibition in vivo at 5 mg/kg: po
How it was run: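 Conscious male SHR (16–20 weeks, ~330 g) cannulated under local procaine, blood pressure recorded via transducer. Angiotensin II (human) 0.05 and 0.1 ug/kg i.v. given before and after test compound dosed i.v., i.p. or orally; response measured as rise in systolic pressure (mmHg).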

`CCCCc1nc2ccc([C@H]3[C@@H]4CCC[C@@H]4ON3C)cc2c(=O)n1Cc1ccc(-c2ccccc2-c2nnn[nH]2)cc1` (relative stereo) [Example 50] was tested, and the inhibition in vivo at 1 mg/kg (0.5 h, 1 mg/kg I.V., AII 0.05 mcg/kg IV, 30 min post dose) was 17%, the inhibition in vivo at 1 mg/kg (0.5 h, 1 mg/kg I.V., AII 0.1 mcg/kg IV, 30 min post dose) was 39% and the inhibition in vivo at 3 mg/kg (0.5 h, 3 mg/kg I.V., AII 0.05 mcg/kg IV, 30 min post dose) was 64%. The inhibition in vivo at 3 mg/kg (0.5 h, 3 mg/kg I.V., AII 0.1 mcg/kg IV, 30 min post dose) was 66%, the inhibition in vivo at 1 mg/kg (1 h, 1 mg/kg I.V., AII 0.05 mcg/kg IV, 60 min post dose) was 17% and the inhibition in vivo at 1 mg/kg (1 h, 1 mg/kg I.V., AII 0.1 mcg/kg IV, 60 min post dose) was 27%. For the same compound, the inhibition in vivo at 3 mg/kg (1 h, 3 mg/kg I.V., AII 0.05 mcg/kg IV, 60 min post dose) was 70%, the inhibition in vivo at 3 mg/kg (1 h, 3 mg/kg I.V., AII 0.1 mcg/kg IV, 60 min post dose) was 65% and the inhibition in vivo at 1 mg/kg (2 h, 1 mg/kg I.V., AII 0.05 mcg/kg IV, 120 min post dose) was 17%. For the same compound, the inhibition in vivo at 1 mg/kg (2 h, 1 mg/kg I.V., AII 0.1 mcg/kg IV, 120 min post dose) was 35%, the inhibition in vivo at 3 mg/kg (2 h, 3 mg/kg I.V., AII 0.05 mcg/kg IV, 120 min post dose) was 66% and the inhibition in vivo at 3 mg/kg (2 h, 3 mg/kg I.V., AII 0.1 mcg/kg IV, 120 min post dose) was 75%. The inhibition in vivo at 1 mg/kg (3 h, 1 mg/kg I.V., AII 0.05 mcg/kg IV, 180 min post dose) was 25%, the inhibition in vivo at 1 mg/kg (3 h, 1 mg/kg I.V., AII 0.1 mcg/kg IV, 180 min post dose) was 33% and the inhibition in vivo at 3 mg/kg (3 h, 3 mg/kg I.V., AII 0.05 mcg/kg IV, 180 min post dose) was 59%. For the same compound, the inhibition in vivo at 3 mg/kg (3 h, 3 mg/kg I.V., AII 0.1 mcg/kg IV, 180 min post dose) was 68%, the inhibition in vivo at 1 mg/kg (4 h, 1 mg/kg I.V., AII 0.05 mcg/kg IV, 240 min post dose) was -8% and the inhibition in vivo at 1 mg/kg (4 h, 1 mg/kg I.V., AII 0.1 mcg/kg IV, 240 min post dose) was -16%. For the same compound, the inhibition in vivo at 1 mg/kg (5 h, 1 mg/kg I.V., AII 0.05 mcg/kg IV, 300 min post dose) was -25%, the inhibition in vivo at 1 mg/kg (5 h, 1 mg/kg I.V., AII 0.1 mcg/kg IV, 300 min post dose) was -11% and the inhibition in vivo at 1 mg/kg (16.5 h, 1 mg/kg I.V., AII 0.05 mcg/kg IV, 990 min post dose (so in the source)) was 20%. The inhibition in vivo at 1 mg/kg (16.5 h, 1 mg/kg I.V., AII 0.1 mcg/kg IV, 990 min post dose (so in the source)) was 9%, the inhibition in vivo at 3 mg/kg ([…], 3 mg/kg I.V., AII 0.05 mcg/kg IV, 90 min post dose) was 80% and the inhibition in vivo at 3 mg/kg ([…], 3 mg/kg I.V., AII 0.1 mcg/kg IV, 90 min post dose) was 52%. For the same compound, the inhibition in vivo at 5 mg/kg (0.5 h, 5 mg/kg P.O., AII 0.05 mcg/kg IV, 30 min post dose) was 47%, the inhibition in vivo at 5 mg/kg (0.5 h, 5 mg/kg P.O., AII 0.1 mcg/kg IV, 30 min post dose) was 25% and the inhibition in vivo at 5 mg/kg (1 h, 5 mg/kg P.O., AII 0.05 mcg/kg IV, 60 min post dose) was 47%. For the same compound, the inhibition in vivo at 5 mg/kg (1 h, 5 mg/kg P.O., AII 0.1 mcg/kg IV, 60 min post dose) was 32%, the inhibition in vivo at 5 mg/kg (2 h, 5 mg/kg P.O., AII 0.05 mcg/kg IV, 120 min post dose) was 68% and the inhibition in vivo at 5 mg/kg (3 h, 5 mg/kg P.O., AII 0.05 mcg/kg IV, 180 min post dose) was 35%. It also gave an inhibition in vivo at 5 mg/kg (3 h, 5 mg/kg P.O., AII 0.1 mcg/kg IV, 180 min post dose) of 18%, an inhibition in vivo at 5 mg/kg ([…], 5 mg/kg P.O., AII 0.05 mcg/kg IV, 90 min post dose) of 53% and an inhibition in vivo at 5 mg/kg ([…], 5 mg/kg P.O., AII 0.1 mcg/kg IV, 90 min post dose) of 52%. The “Average Change” value (1 mg/kg I.V., AII 0.05 mcg/kg IV, 30 min post dose) was 25 mmHg, the “Average Change” value (1 mg/kg I.V., AII 0.05 mcg/kg IV, 60 min post dose) was 25 mmHg and the “Average Change” value (1 mg/kg I.V., AII 0.05 mcg/kg IV, 120 min post dose) was 25 mmHg. The “Average Change” value (1 mg/kg I.V., AII 0.05 mcg/kg IV, 180 min post dose) was 22.5 mmHg, the “Average Change” value (1 mg/kg I.V., AII 0.05 mcg/kg IV, 240 min post dose) was 32.5 mmHg and the “Average Change” value (1 mg/kg I.V., AII 0.05 mcg/kg IV, 300 min post dose) was 37.5 mmHg. The “Average Change” value (1 mg/kg I.V., AII 0.05 mcg/kg IV, 990 min post dose (so in the source)) was 24 mmHg, the “Average Change” value (1 mg/kg I.V., AII 0.1 mcg/kg IV, 30 min post dose) was 25 mmHg and the “Average Change” value (1 mg/kg I.V., AII 0.1 mcg/kg IV, 60 min post dose) was 30 mmHg. For the same compound, the “Average Change” value (1 mg/kg I.V., AII 0.1 mcg/kg IV, 120 min post dose) was 26.5 mmHg, the “Average Change” value (1 mg/kg I.V., AII 0.1 mcg/kg IV, 180 min post dose) was 27.5 mmHg and the “Average Change” value (1 mg/kg I.V., AII 0.1 mcg/kg IV, 240 min post dose) was 47.5 mmHg. For the same compound, the “Average Change” value (1 mg/kg I.V., AII 0.1 mcg/kg IV, 300 min post dose) was 45.5 mmHg, the “Average Change” value (1 mg/kg I.V., AII 0.1 mcg/kg IV, 990 min post dose (so in the source)) was 37.5 mmHg and the “Average Change” value (3 mg/kg I.V., AII 0.05 mcg/kg IV, 30 min post dose) was 20 mmHg. For the same compound, the “Average Change” value (3 mg/kg I.V., AII 0.05 mcg/kg IV, 60 min post dose) was 16.5 mmHg, the “Average Change” value (3 mg/kg I.V., AII 0.05 mcg/kg IV, 90 min post dose) was 11 mmHg and the “Average Change” value (3 mg/kg I.V., AII 0.05 mcg/kg IV, 120 min post dose) was 18.5 mmHg. For the same compound, the “Average Change” value (3 mg/kg I.V., AII 0.05 mcg/kg IV, 180 min post dose) was 22.5 mmHg, the “Average Change” value (3 mg/kg I.V., AII 0.1 mcg/kg IV, 30 min post dose) was 18.5 mmHg and the “Average Change” value (3 mg/kg I.V., AII 0.1 mcg/kg IV, 60 min post dose) was 19 mmHg. For the same compound, the “Average Change” value (3 mg/kg I.V., AII 0.1 mcg/kg IV, 90 min post dose) was 26.5 mmHg, the “Average Change” value (3 mg/kg I.V., AII 0.1 mcg/kg IV, 120 min post dose) was 14 mmHg and the “Average Change” value (3 mg/kg I.V., AII 0.1 mcg/kg IV, 180 min post dose) was 17.5 mmHg. The “Average Change” value (5 mg/kg P.O., AII 0.05 mcg/kg IV, 30 min post dose) was 22.5 mmHg, the “Average Change” value (5 mg/kg P.O., AII 0.05 mcg/kg IV, 60 min post dose) was 22.5 mmHg and the “Average Change” value (5 mg/kg P.O., AII 0.05 mcg/kg IV, 90 min post dose) was 20 mmHg. The “Average Change” value (5 mg/kg P.O., AII 0.05 mcg/kg IV, 120 min post dose) was 13.5 mmHg, the “Average Change” value (5 mg/kg P.O., AII 0.05 mcg/kg IV, 180 min post dose) was 27.5 mmHg and the “Average Change” value (5 mg/kg P.O., AII 0.1 mcg/kg IV, 30 min post dose) was 32 mmHg. For the same compound, the “Average Change” value (5 mg/kg P.O., AII 0.1 mcg/kg IV, 60 min post dose) was 29 mmHg, the “Average Change” value (5 mg/kg P.O., AII 0.1 mcg/kg IV, 90 min post dose) was 20.5 mmHg and the “Average Change” value (5 mg/kg P.O., AII 0.1 mcg/kg IV, 120 min post dose) was 22.5 mmHg. The “Average Change” value (5 mg/kg P.O., AII 0.1 mcg/kg IV, 180 min post dose) was 35 mmHg and the Change (single SHR, 5 mg/kg P.O., AII 0.1 mcg/kg IV, 180 min post dose) was 35 mmHg.
